Read-outs that look alike come from different tables or passages of the source.
Tested on: HSV-1
Experiment: Plaque reduction assay, HSV-1 clinical isolates on Vero cells
Format: cell-based
Conditions: Human alphaherpesvirus 1, Vero
Outline: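 Susceptibility of HSV-1 isolates was read as percent plaque reduction versus no-drug control, counted on fixed, crystal-violet-stained sub-confluent Vero cells infected at 75 PFU/well beneath CMC. Intermediate resistance lies between cut-offs ACV <3/>40 μM, PCV <10/>40 μM, CDV <24/>30 μM, FOS <250/>400 μM.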

With `Nc1nc2c(ncn2CCC(CO)CO)c(=O)[nH]1` [Penciclovir, penciclovir] the IC50 (72 h, isolate HPG053, HSV-1 pol L802R + A834S (2405T>G, 2500G>T), also TK R176W, read-out: Drug susceptibility (IC50 value)) was greater than 160 µM, the IC50 (isolate HPG002, HSV-1 pol E992K (2974G>A), also TK insert (G) nt 430-436, pol A1169T, read-out: Drug susceptibility (IC50 value)) was greater than 160 µM and the IC50 (isolate HPG002, HSV-1 pol E992K (2974G>A), also TK insert (G) nt 430-436, pol A1169T, read-out: Drug susceptibility Penciclovir (PCV)) was greater than 40 µM. The IC50 (isolate HPG003, HSV-1 TK Y172S (515A>C), read-out: Drug susceptibility (IC50 value)) was 106 µM, the IC50 (isolate HPG003, HSV-1 TK Y172S (515A>C), read-out: Drug susceptibility Penciclovir (PCV)) was greater than 40 µM and the IC50 (isolate HPG005, HSV-1 TK A37V (110C>T), read-out: Drug susceptibility (IC50 value)) was 5.19 µM. The IC50 (isolate HPG005, HSV-1 TK A37V (110C>T), read-out: Drug susceptibility Penciclovir (PCV)) was less than 10 µM, the IC50 (isolate HPG008, HSV-1 TK V204G (611T>G), read-out: Drug susceptibility (IC50 value)) was greater than 160 µM and the IC50 (isolate HPG008, HSV-1 TK V204G (611T>G), read-out: Drug susceptibility Penciclovir (PCV)) was greater than 40 µM. It also gave an IC50 (isolate HPG009, HSV-1 pol E992K (2974G>A), also pol A1169T, read-out: Drug susceptibility (IC50 value)) of 4.05 µM, an IC50 (isolate HPG009, HSV-1 pol E992K (2974G>A), also pol A1169T, read-out: Drug susceptibility Penciclovir (PCV)) of less than 10 µM and an IC50 (isolate HPG010, HSV-1 TK Q125* (373C>T), read-out: Drug susceptibility (IC50 value)) of 87.1 µM. The IC50 (isolate HPG010, HSV-1 TK Q125* (373C>T), read-out: Drug susceptibility Penciclovir (PCV)) was greater than 40 µM, the IC50 (isolate HPG011, HSV-1 TK Q125* (373C>T), read-out: Drug susceptibility (IC50 value)) was 108 µM and the IC50 (isolate HPG011, HSV-1 TK Q125* (373C>T), read-out: Drug susceptibility Penciclovir (PCV)) was greater than 40 µM. For the same compound, the IC50 (isolate HPG013, HSV-1 TK M121I (363G>A), read-out: Drug susceptibility (IC50 value)) was 105 µM, the IC50 (isolate HPG013, HSV-1 TK M121I (363G>A), read-out: Drug susceptibility Penciclovir (PCV)) was greater than 40 µM and the IC50 (isolate HPG013, HSV-1 pol D83A (248A>C), also TK M121I, pol A1169T, read-out: Drug susceptibility (IC50 value)) was 105 µM. It also gave an IC50 (isolate HPG013, HSV-1 pol D83A (248A>C), also TK M121I, pol A1169T, read-out: Drug susceptibility Penciclovir (PCV)) greater than 40 µM, an IC50 (isolate HPG014, HSV-1 pol A1115T (3343G>A), read-out: Drug susceptibility (IC50 value)) of 5.66 µM and an IC50 (isolate HPG014, HSV-1 pol A1115T (3343G>A), read-out: Drug susceptibility Penciclovir (PCV)) of less than 10 µM. For the same compound, the IC50 (isolate HPG014, HSV-1 pol R993C (2977C>T), read-out: Drug susceptibility (IC50 value)) was 5.66 µM, the IC50 (isolate HPG014, HSV-1 pol R993C (2977C>T), read-out: Drug susceptibility Penciclovir (PCV)) was less than 10 µM and the IC50 (isolate HPG014, HSV-1 pol T54A (160A>G), read-out: Drug susceptibility (IC50 value)) was 5.66 µM. The IC50 (isolate HPG014, HSV-1 pol T54A (160A>G), read-out: Drug susceptibility Penciclovir (PCV)) was less than 10 µM, the IC50 (isolate HPG015, HSV-1 pol 966stop or F965_I966insF (2892_2893insT to 2895_2896insT), read-out: Drug susceptibility (IC50 value)) was 8.48 µM and the IC50 (isolate HPG015, HSV-1 pol 966stop or F965_I966insF (2892_2893insT to 2895_2896insT), read-out: Drug susceptibility Penciclovir (PCV)) was less than 10 µM. For the same compound, the IC50 (isolate HPG018, HSV-1 TK frameshift (881delC to 885delC), read-out: Drug susceptibility (IC50 value)) was 117 µM, the IC50 (isolate HPG018, HSV-1 TK frameshift (881delC to 885delC), read-out: Drug susceptibility Penciclovir (PCV)) was greater than 40 µM and the IC50 (isolate HPG018, HSV-1 pol P1199T (3595C>A), also TK deletion (C) nt 881-885, pol A1169T, read-out: Drug susceptibility (IC50 value)) was 117 µM. The IC50 (isolate HPG018, HSV-1 pol P1199T (3595C>A), also TK deletion (C) nt 881-885, pol A1169T, read-out: Drug susceptibility Penciclovir (PCV)) was greater than 40 µM, the IC50 (isolate HPG019, HSV-1 pol K750T (2249A>C), also TK deletion (G) nt 430-436, pol A1169T, read-out: Drug susceptibility (IC50 value)) was greater than 160 µM and the IC50 (isolate HPG019, HSV-1 pol K750T (2249A>C), also TK deletion (G) nt 430-436, pol A1169T, read-out: Drug susceptibility Penciclovir (PCV)) was greater than 40 µM. It also gave an IC50 (isolate HPG020, HSV-1 pol S911N (2732G>A), also pol A1169T, read-out: Drug susceptibility (IC50 value)) of 2.48 µM, an IC50 (isolate HPG020, HSV-1 pol S911N (2732G>A), also pol A1169T, read-out: Drug susceptibility Penciclovir (PCV)) of less than 10 µM and an IC50 (isolate HPG021, HSV-1 pol R681Q (2042G>A), also TK deletion (G) nt 430-436, read-out: Drug susceptibility (IC50 value)) greater than 160 µM. It also gave an IC50 (isolate HPG021, HSV-1 pol R681Q (2042G>A), also TK deletion (G) nt 430-436, read-out: Drug susceptibility Penciclovir (PCV)) greater than 40 µM, an IC50 (isolate HPG021, HSV-1 pol T839A (2515A>G), also TK deletion (G) nt 430-436, read-out: Drug susceptibility (IC50 value)) greater than 160 µM and an IC50 (isolate HPG021, HSV-1 pol T839A (2515A>G), also TK deletion (G) nt 430-436, read-out: Drug susceptibility Penciclovir (PCV)) greater than 40 µM. For the same compound, the IC50 (isolate HPG025, HSV-1 pol E850Q (2548G>C), also TK R216C, read-out: Drug susceptibility (IC50 value)) was 118 µM, the IC50 (isolate HPG025, HSV-1 pol E850Q (2548G>C), also TK R216C, read-out: Drug susceptibility Penciclovir (PCV)) was greater than 40 µM and the IC50 (isolate HPG026, HSV-1 pol E850Q (2548G>C), also TK R216C, pol A1169T, read-out: Drug susceptibility (IC50 value)) was 35 µM. The IC50 (isolate HPG026, HSV-1 pol E850Q (2548G>C), also TK R216C, pol A1169T, read-out: Drug susceptibility Penciclovir (PCV)) was 10 to 40 µM, the IC50 (isolate HPG027, HSV-1 TK V204G (611T>G), also pol S914L, A1169AT, read-out: Drug susceptibility (IC50 value)) was greater than 160 µM and the IC50 (isolate HPG027, HSV-1 TK V204G (611T>G), also pol S914L, A1169AT, read-out: Drug susceptibility Penciclovir (PCV)) was greater than 40 µM. It also gave an IC50 (isolate HPG027, HSV-1 pol S914L (2741C>T), also TK V204G, pol A1169T, read-out: Drug susceptibility (IC50 value)) greater than 160 µM, an IC50 (isolate HPG027, HSV-1 pol S914L (2741C>T), also TK V204G, pol A1169T, read-out: Drug susceptibility Penciclovir (PCV)) greater than 40 µM and an IC50 (isolate HPG029, HSV-1 TK Y172S (515A>C), read-out: Drug susceptibility (IC50 value)) greater than 160 µM. For the same compound, the IC50 (isolate HPG029, HSV-1 TK Y172S (515A>C), read-out: Drug susceptibility Penciclovir (PCV)) was greater than 40 µM, the IC50 (isolate HPG031, HSV-1 pol E1120A (3359A>C), also a TK resistance mutation (footnote e), read-out: Drug susceptibility (IC50 value)) was 156 µM and the IC50 (isolate HPG031, HSV-1 pol E1120A (3359A>C), also a TK resistance mutation (footnote e), read-out: Drug susceptibility Penciclovir (PCV)) was greater than 40 µM. For the same compound, the IC50 (isolate HPG031, HSV-1 pol G139R (415G>C or 415G>A), also a TK resistance mutation (footnote e), read-out: Drug susceptibility (IC50 value)) was 156 µM, the IC50 (isolate HPG031, HSV-1 pol G139R (415G>C or 415G>A), also a TK resistance mutation (footnote e), read-out: Drug susceptibility Penciclovir (PCV)) was greater than 40 µM and the IC50 (isolate HPG032, HSV-1 TK 183* (437_438insA), read-out: Drug susceptibility (IC50 value)) was greater than 160 µM. For the same compound, the IC50 (isolate HPG032, HSV-1 TK 183* (437_438insA), read-out: Drug susceptibility Penciclovir (PCV)) was greater than 40 µM.

Source: patent US12281363B2, “Methods for detecting antiviral-drug resistant virus” (Secretary of State for Health and Social Care, priority 2018, dated 2025)
